Results reported in PubChem BioAssay (NCI).
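Five concentrations, 48 hours, 96-well plates. TGI marks complete inhibition of growth.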

Assays:
Test in all cases: NCI anticancer screen, dose series, 48 h
CCRF-CEM leukemia = test system: CCRF-CEM leukemia
HCC-2998 colon = test system: HCC-2998 colon
KM12 colon = test system: KM12 colon
DLD-1 colon = test system: DLD-1 colon
OVCAR-5 ovarian = test system: OVCAR-5 ovarian
786-0 renal = test system: 786-0 renal
OVCAR-3 ovarian = test system: OVCAR-3 ovarian
DMS 114 small cell lung = test system: DMS 114 small cell lung
HOP-62 NSCLC = test system: HOP-62 NSCLC
DMS 273 small cell lung = test system: DMS 273 small cell lung
HT29 colon = test system: HT29 colon
M19-MEL melanoma = test system: M19-MEL melanoma
HL-60(TB) leukemia = test system: HL-60(TB) leukemia
MALME-3M melanoma = test system: MALME-3M melanoma
OVCAR-8 ovarian = test system: OVCAR-8 ovarian
SK-OV-3 ovarian = test system: SK-OV-3 ovarian
NCI-H226 lung = test system: NCI-H226 lung
RPMI-8226 leukemia = test system: RPMI-8226 leukemia
SW-620 colon = test system: SW-620 colon
SK-MEL-2 melanoma = test system: SK-MEL-2 melanoma
HCT-116 colon = test system: HCT-116 colon
KM20L2 colon = test system: KM20L2 colon
HOP-18 NSCLC = test system: HOP-18 NSCLC
U251 CNS = test system: U251 CNS
NCI-H460 lung = test system: NCI-H460 lung
SNB-75 CNS = test system: SNB-75 CNS
ACHN renal = test system: ACHN renal
UACC-257 melanoma = test system: UACC-257 melanoma
SF-539 CNS = test system: SF-539 CNS
RXF 393 renal = test system: RXF 393 renal
K-562 leukemia = test system: K-562 leukemia
LXFL 529 NSCLC = test system: LXFL 529 NSCLC
NCI-H23 lung = test system: NCI-H23 lung
A549 NSCLC = test system: A549 NSCLC
SR leukemia = test system: SR leukemia
SNB-19 CNS = test system: SNB-19 CNS
SN12C renal = test system: SN12C renal
HCT-15 colon = test system: HCT-15 colon
SNB-78 CNS = test system: SNB-78 CNS
M14 melanoma = test system: M14 melanoma
MOLT-4 leukemia = test system: MOLT-4 leukemia
SF-295 CNS = test system: SF-295 CNS
SK-MEL-5 melanoma = test system: SK-MEL-5 melanoma
COLO 205 colon = test system: COLO 205 colon
UO-31 renal = test system: UO-31 renal
CAKI-1 renal = test system: CAKI-1 renal
SK-MEL-28 melanoma = test system: SK-MEL-28 melanoma
IGROV1 ovarian = test system: IGROV1 ovarian
SF-268 CNS = test system: SF-268 CNS
NCI-H522 lung = test system: NCI-H522 lung
OVCAR-4 ovarian = test system: OVCAR-4 ovarian
TK-10 renal = test system: TK-10 renal
UACC-62 melanoma = test system: UACC-62 melanoma
EKVX NSCLC = test system: EKVX NSCLC
LOX IMVI melanoma = test system: LOX IMVI melanoma
A498 renal = test system: A498 renal
HOP-92 NSCLC = test system: HOP-92 NSCLC

## COC1OC(C)C(OC(=O)C(C)(C)C)C(OS(=O)(=O)c2ccc(C)cc2)C1OS(=O)(=O)c1ccc(C)cc1 (configuration not stated)
CCRF-CEM leukemia
  TGI: > 100 µM
HCC-2998 colon
  TGI: > 100 µM
KM12 colon
  TGI: > 100 µM
DLD-1 colon
  TGI: > 100 µM
OVCAR-5 ovarian
  TGI: > 100 µM
786-0 renal
  TGI: > 100 µM
OVCAR-3 ovarian
  TGI: > 100 µM
DMS 114 small cell lung
  TGI: > 100 µM
HOP-62 NSCLC
  TGI: > 100 µM
DMS 273 small cell lung
  TGI: > 100 µM
HT29 colon
  TGI: > 100 µM
M19-MEL melanoma
  TGI: > 100 µM
HL-60(TB) leukemia
  TGI: > 100 µM
MALME-3M melanoma
  TGI: > 100 µM
OVCAR-8 ovarian
  TGI: > 100 µM
SK-OV-3 ovarian
  TGI: > 100 µM
NCI-H226 lung
  TGI: > 100 µM
RPMI-8226 leukemia
  TGI: > 100 µM
SW-620 colon
  TGI: > 100 µM
SK-MEL-2 melanoma
  TGI: > 100 µM
HCT-116 colon
  TGI: > 100 µM
KM20L2 colon
  TGI: > 100 µM
HOP-18 NSCLC
  TGI: > 100 µM
U251 CNS
  TGI: > 100 µM
NCI-H460 lung
  TGI: > 100 µM
SNB-75 CNS
  TGI: > 100 µM
ACHN renal
  TGI: > 100 µM
UACC-257 melanoma
  TGI: > 100 µM
SF-539 CNS
  TGI: > 100 µM
RXF 393 renal
  TGI: > 100 µM
K-562 leukemia
  TGI: > 100 µM
LXFL 529 NSCLC
  TGI: > 100 µM
NCI-H23 lung
  TGI: > 100 µM
A549 NSCLC
  TGI: > 100 µM
SR leukemia
  TGI: > 100 µM
SNB-19 CNS
  TGI: > 100 µM
SN12C renal
  TGI: > 100 µM
HCT-15 colon
  TGI: > 100 µM
SNB-78 CNS
  TGI: > 100 µM
M14 melanoma
  TGI: > 100 µM
MOLT-4 leukemia
  TGI: > 100 µM
SF-295 CNS
  TGI: > 100 µM
SK-MEL-5 melanoma
  TGI: > 100 µM
COLO 205 colon
  TGI: > 100 µM
UO-31 renal
  TGI: > 100 µM
CAKI-1 renal
  TGI: > 100 µM
SK-MEL-28 melanoma
  TGI: > 100 µM
IGROV1 ovarian
  TGI: > 100 µM
SF-268 CNS
  TGI: > 100 µM
NCI-H522 lung
  TGI: > 100 µM
OVCAR-4 ovarian
  TGI: > 100 µM

## O=C1c2ccccc2C2(O)Nc3c(ccc4ccccc34)C12O (configuration not stated)
CCRF-CEM leukemia
  TGI: > 100 µM
HCC-2998 colon
  TGI: > 100 µM
KM12 colon
  TGI: > 100 µM
DLD-1 colon
  TGI: > 100 µM
OVCAR-5 ovarian
  TGI: > 100 µM
786-0 renal
  TGI: > 100 µM
OVCAR-3 ovarian
  TGI: > 100 µM
DMS 114 small cell lung
  TGI: > 100 µM
HOP-62 NSCLC
  TGI: > 100 µM
DMS 273 small cell lung
  TGI: > 100 µM
HT29 colon
  TGI: > 100 µM
TK-10 renal
  TGI: > 100 µM
M19-MEL melanoma
  TGI: > 100 µM
HL-60(TB) leukemia
  TGI: > 100 µM
MALME-3M melanoma
  TGI: > 100 µM
OVCAR-8 ovarian
  TGI: > 100 µM
SK-OV-3 ovarian
  TGI: > 100 µM
NCI-H226 lung
  TGI: > 100 µM
RPMI-8226 leukemia
  TGI: > 100 µM
SW-620 colon
  TGI: > 100 µM
SK-MEL-2 melanoma
  TGI: > 100 µM
HCT-116 colon
  TGI: > 100 µM
KM20L2 colon
  TGI: > 100 µM
UACC-62 melanoma
  TGI: > 100 µM
HOP-18 NSCLC
  TGI: > 100 µM
U251 CNS
  TGI: > 100 µM
NCI-H460 lung
  TGI: > 100 µM
SNB-75 CNS
  TGI: > 100 µM
ACHN renal
  TGI: > 100 µM
UACC-257 melanoma
  TGI: > 100 µM
SF-539 CNS
  TGI: > 100 µM
EKVX NSCLC
  TGI: > 100 µM
RXF 393 renal
  TGI: > 100 µM
K-562 leukemia
  TGI: > 100 µM
LXFL 529 NSCLC
  TGI: > 100 µM
NCI-H23 lung
  TGI: > 100 µM
A549 NSCLC
  TGI: > 100 µM
LOX IMVI melanoma
  TGI: > 100 µM
SNB-19 CNS
  TGI: > 100 µM
SN12C renal
  TGI: > 100 µM
HCT-15 colon
  TGI: > 100 µM
SNB-78 CNS
  TGI: > 100 µM
M14 melanoma
  TGI: > 100 µM
MOLT-4 leukemia
  TGI: > 100 µM
SF-295 CNS
  TGI: > 100 µM
SK-MEL-5 melanoma
  TGI: > 100 µM
COLO 205 colon
  TGI: > 100 µM
UO-31 renal
  TGI: > 100 µM
A498 renal
  TGI: > 100 µM
CAKI-1 renal
  TGI: > 100 µM
SK-MEL-28 melanoma
  TGI: > 100 µM
IGROV1 ovarian
  TGI: > 100 µM
SF-268 CNS
  TGI: > 100 µM
NCI-H522 lung
  TGI: > 100 µM
OVCAR-4 ovarian
  TGI: > 100 µM

## C=C1CC(c2ccc(O)c(OC)c2)Oc2c(OC)cccc21 (configuration not stated)
CCRF-CEM leukemia
  TGI: 93.7 µM
HCC-2998 colon
  TGI: > 100 µM
KM12 colon
  TGI: > 100 µM
DLD-1 colon
  TGI: > 100 µM
OVCAR-5 ovarian
  TGI: > 100 µM
786-0 renal
  TGI: > 100 µM
OVCAR-3 ovarian
  TGI: > 100 µM
DMS 114 small cell lung
  TGI: 56.1 µM
HOP-62 NSCLC
  TGI: > 100 µM
DMS 273 small cell lung
  TGI: 55.2 µM
HT29 colon
  TGI: > 100 µM
TK-10 renal
  TGI: > 100 µM
M19-MEL melanoma
  TGI: > 100 µM
HL-60(TB) leukemia
  TGI: 49.9 µM
OVCAR-8 ovarian
  TGI: > 100 µM
SK-OV-3 ovarian
  TGI: > 100 µM
NCI-H226 lung
  TGI: > 100 µM
SW-620 colon
  TGI: > 100 µM
HCT-116 colon
  TGI: > 100 µM
KM20L2 colon
  TGI: > 100 µM
UACC-62 melanoma
  TGI: > 100 µM
HOP-92 NSCLC
  TGI: 53.1 µM
HOP-18 NSCLC
  TGI: > 100 µM
U251 CNS
  TGI: > 100 µM
NCI-H460 lung
  TGI: > 100 µM
SNB-75 CNS
  TGI: > 100 µM
ACHN renal
  TGI: > 100 µM
UACC-257 melanoma
  TGI: > 100 µM
SF-539 CNS
  TGI: 52.2 µM
EKVX NSCLC
  TGI: > 100 µM
K-562 leukemia
  TGI: 64.8 µM
LXFL 529 NSCLC
  TGI: > 100 µM
NCI-H23 lung
  TGI: > 100 µM
A549 NSCLC
  TGI: > 100 µM
SR leukemia
  TGI: 61.3 µM
SNB-19 CNS
  TGI: > 100 µM
SN12C renal
  TGI: > 100 µM
HCT-15 colon
  TGI: > 100 µM
SNB-78 CNS
  TGI: > 100 µM
M14 melanoma
  TGI: > 100 µM
MOLT-4 leukemia
  TGI: > 100 µM
SF-295 CNS
  TGI: > 100 µM
SK-MEL-5 melanoma
  TGI: > 100 µM
COLO 205 colon
  TGI: > 100 µM
UO-31 renal
  TGI: > 100 µM
CAKI-1 renal
  TGI: > 100 µM
SK-MEL-28 melanoma
  TGI: > 100 µM
IGROV1 ovarian
  TGI: > 100 µM
SF-268 CNS
  TGI: > 100 µM
NCI-H522 lung
  TGI: 49.5 µM
OVCAR-4 ovarian
  TGI: > 100 µM
